Data as given in patent publication US20250114389A1, “NUCLEOSIDES AND NUCLEOTIDES ANALOGS AS ANTIVIRAL AGENTS” (Emory University, priority 2021, published 2025).
Values joined by “and” are separate entries in the source; they are usually repeats but may differ in a detail not shown here. Identical values can stand only once. Like-named read-outs stand apart in the source and are kept apart here.

Assays:
SARS-CoV-2 [1] = experiment: Anti-SARS-CoV-2 activity in HAE-HBO (apical-out lung organoids); assay type: cell-based; conditions: Severe acute respiratory syndrome coronavirus 2
SARS-CoV-2 [2] = experiment: Anti-SARS-CoV-2 activity in Vero cells (virus yield inhibition); assay type: cell-based
[3] = Cytotoxicity in CEM cells; assay type: cell-based, human; conditions: human, CEM lymphoblastoid cells
Method: (§1) The toxicity of the compounds was assessed in Vero, human PBM, CEM (human lymphoblastoid), MT-2, and HepG2 cells, as described previously (see Schinazi R. F., Sommadossi J.-P., Saalmann V., Cannon D. L., Xie M.-Y., Hart G. C., Smith G. A. & Hahn E. F. Antimicrob. Agents Chemother. 1990, 34, 1061-67). Cycloheximide was included as positive cytotoxic control, and untreated cells exposed to solvent were included as negative controls. The cytotoxicity IC50 was obtained from the concentration-response curve using the median effective method described previously (see Chou T.-C. & Talalay P. Adv. Enzyme Regul. 1984, 22, 27-55; Belen'kii M. S. & Schinazi R. F. Antiviral Res. 1994, 25, 1-11).

[4] = Cytotoxicity in PBM cells; assay type: cell-based, human; conditions: human
Method: as §1

[5] = Cytotoxicity in Vero cells; conditions: African green monkey, Vero kidney cells
SARS-CoV-2 [6] = experiment: Anti-SARS-CoV-2 activity in Calu3 ALI culture; assay type: cell-based; conditions: Severe acute respiratory syndrome coronavirus 2, Calu-3; Calu3 air-liquid interface
in vitro [7] = conditions: human
[8] = Quantification of Compound A in mouse lung, brain and plasma; assay type: in vivo, CD-1 mice; conditions: for concentration at 7 h / Brain concentration / Lung concentration: 7 h; for Plasma concentration, average / Plasma concentration: assuming density 1 g/mL
Method: CD-1 mice were treated with Compound A PO (30 mg/kg, 3 mice) or IV (15 mg/kg, 3 mice). Lung and brain samples were collected at 7 h.
Lung and brain samples were homogenized with 5× volume of 20% MeOH.
50 μL tissue homogenate was mixed with 250 μL MeOH (containing 40 nM indinavir as IS).
The supernatant was air-dried, then reconstituted in 150 μL of H2O.
Subjected to LC-MS analysis.
Calibration curve range: 30 nM to 30 μM.
Instrument: TSQ Quantiva, Column: Kinetex XB—C8 (50×2.1 mm, 2.6 μm)
LC buffers: A): 0.1% formic acid, and B): Acetonitrile
MRM methods: Compound A (269.2→112 positive), Indinavir (IS, 614.4→421.2 positive, IS)

SARS-CoV-2 [9] = experiment: Anti-SARS-CoV-2 activity in Calu3 cells (virus yield inhibition); assay type: cell-based; conditions: Severe acute respiratory syndrome coronavirus 2, Calu-3, Table 1
SARS-CoV-2 [10] = experiment: Anti-SARS-CoV-2 activity in HAE-ALI culture; assay type: cell-based; conditions: Severe acute respiratory syndrome coronavirus 2; HAE air-liquid interface
Omicron [11] = experiment: microbe, parasite or virus in culture
[12] = Non-compartmental PK analysis of IV and oral Compound A in mice; assay type: in vivo; conditions: for half-life: read-out: mean terminal t1/2 (converted)
Method: A study was performed to measure the concentration of Compound A ([…]) over time (hours) when administered orally at a concentration of 30 mg/kg (FIG. 8A) and intravenously at a concentration of 15 mg/kg (FIG. 8B).

in vitro [13] = conditions: human, Caco-2
[14] = assay type: in vitro ADME; conditions: 10 μM
Method: An aliquot of 450 μL of human, mouse or hamster plasma were exposed to 10 μM of compound and incubated at 37° C. At 0, 5, 15, 30, 60, 90 and 120 min, 50 μL of plasma sample was mixed with 200 μL of ice-cold methanol (70%). 50 μL supernatant was dried and reconstituted in 100 μL H2O. Propantheline bromide was used as positive control. The supernatant was then subjected to LC-MS analysis (LC-MS condition: Instrument: Thermo TSQ Quantiva. Column: Kinetex […] (50×2.1 mm, […]). LC buffers: A): 0.1% formic acid, and B): acetonitrile. MRM methods: (269.2-112 positive), Indinavir (IS, 614.4-421.2 positive, IS)). The stability results are shown in FIGS. 2-4 (human plasma, mouse plasma and hamster plasma, respectively). Compound A is stable in human and mouse plasma up to 2 hours and stable up to […] in hamster plasma. Compound 23 was converted to compound A in hamster plasma in less than 5 min.

Omicron [15] = experiment: Anti-Omicron activity in Calu-3; assay type: cell-based, SARS-CoV-2; conditions: Severe acute respiratory syndrome coronavirus 2
[16] = IV 15 mg/kg, individual mice, 15 mg/kg
[17] = PO 30 mg/kg, individual mice, 30 mg/kg

## N#C[C@@]1(n2ccc(N)nc2=O)O[C@H](CO)[C@@H](O)[C@H]1O [Compound A, (2R,3R,4S,5R)-2-(4-amino-2-oxopyrimidin-1(2H)-yl)-3,4-dihydroxy-5-(hydroxymethyl)-tetrahydrofuran-2-carbonitrile]
SARS-CoV-2 [1]
  EC50: 0.3 µM
  EC90: 0.5 µM
SARS-CoV-2 [2]; Severe acute respiratory syndrome coronavirus 2, Table 1, read-out: Anti-SARS-CoV-2 Activity (Vero) EC50
  EC50: 0.6 µM
SARS-CoV-2 [2]; Severe acute respiratory syndrome coronavirus 2, Table 1, read-out: Anti-SARS-CoV-2 Activity (Vero) EC90
  EC90: 2.3 µM
[3]
  CC50: 99 µM
[4]
  CC50: 92 µM
[5]
  CC50: > 100 µM
SARS-CoV-2 [6]
  EC50: 1.3 µM
  EC90: 7.4 µM
In vitro [7]
  CC50: > 100 µM
[8]; CD-1, mouse, brain, iv, 15 mg/kg, IV 15 mg/kg, average of 3 mice, assuming tissue density 1 g/mL, read-out: Brain concentration, average
  concentration at 7 h: 270 nM
[8]; CD-1, mouse, brain, iv, 15 mg/kg, IV 15 mg/kg, average of 3 mice, read-out: Brain concentration, average
  concentration at 7 h: 71.3 ng/g
[8]; CD-1, mouse, brain, po, 30 mg/kg, PO 30 mg/kg, average of 3 mice, assuming tissue density 1 g/mL, read-out: Brain concentration, average
  concentration at 7 h: 200 nM
[8]; CD-1, mouse, brain, po, 30 mg/kg, PO 30 mg/kg, average of 3 mice, read-out: Brain concentration, average
  concentration at 7 h: 53.1 ng/g
[8]; CD-1, mouse, brain, po, 30 mg/kg, PO 30 mg/kg, individual mice, assuming tissue density 1 g/mL, read-out: Brain concentration
  concentration at 7 h: 280 nM
[8]; CD-1, mouse, brain, po, 30 mg/kg, PO 30 mg/kg, individual mice, read-out: Brain concentration
  concentration at 7 h: 73.9 ng/g
[8]; CD-1, mouse, lung, iv, 15 mg/kg, IV 15 mg/kg, average of 3 mice, assuming tissue density 1 g/mL, read-out: Lung concentration, average
  concentration at 7 h: 1200 nM
[8]; CD-1, mouse, lung, iv, 15 mg/kg, IV 15 mg/kg, average of 3 mice, read-out: Lung concentration, average
  concentration at 7 h: 321 ng/g
[8]; CD-1, mouse, lung, iv, 15 mg/kg, IV 15 mg/kg, individual mice, assuming tissue density 1 g/mL, read-out: Lung concentration
  concentration at 7 h: 830 nM
[8]; CD-1, mouse, lung, iv, 15 mg/kg, IV 15 mg/kg, individual mice, read-out: Lung concentration
  concentration at 7 h: 223 ng/g
[8]; CD-1, mouse, lung, po, 30 mg/kg, PO 30 mg/kg, average of 3 mice, assuming tissue density 1 g/mL, read-out: Lung concentration, average
  concentration at 7 h: 4010 nM
[8]; CD-1, mouse, lung, po, 30 mg/kg, PO 30 mg/kg, average of 3 mice, read-out: Lung concentration, average
  concentration at 7 h: 1080 ng/g
[8]; [16]
  Brain concentration: 39.3 ng/g and 56.9 ng/g and 117.8 ng/g
  Lung concentration: 412.0 ng/g and 327.1 ng/g
  Plasma concentration: 370 nM and 610 nM and 590 nM
[8]; IV 15 mg/kg, individual mice, assuming tissue density 1 g/mL, 15 mg/kg, read-out: Brain concentration
  concentration at 7 h: 150 nM and 210 nM and 440 nM
[8]; IV 15 mg/kg, individual mice, assuming tissue density 1 g/mL, 15 mg/kg, read-out: Lung concentration
  concentration at 7 h: 1540 nM and 1220 nM
[8]; IV 15 mg/kg, average of 3 mice
  Plasma concentration, average: 520 nM
[8]; [17]
  Brain concentration: 40.8 ng/g and 44.7 ng/g
  Lung concentration: 881.8 ng/g and 730.8 ng/g and 1,615 ng/g
  Plasma concentration: 2090 nM and 2320 nM and 4990 nM
[8]; PO 30 mg/kg, individual mice, assuming tissue density 1 g/mL, 30 mg/kg, read-out: Brain concentration
  concentration at 7 h: 150 nM and 170 nM
[8]; PO 30 mg/kg, individual mice, assuming tissue density 1 g/mL, 30 mg/kg, read-out: Lung concentration
  concentration at 7 h: 3290 nM and 2720 nM and 6020 nM
[8]; PO 30 mg/kg, average of 3 mice
  Plasma concentration, average: 3130 nM
SARS-CoV-2 [9]
  EC50: 0.02 µM
  EC90: 0.2 µM
SARS-CoV-2 [10]
  EC50: 0.4 µM
  EC90: 1.6 µM
Omicron [11]; Severe acute respiratory syndrome coronavirus 2, Caco-2, read-out: Anti-Omicron Activity (Caco-2) EC50
  EC50: 1.2 µM
Omicron [11]; Severe acute respiratory syndrome coronavirus 2, Caco-2, read-out: Anti-Omicron Activity (Caco-2) EC90
  EC90: 2.2 µM
[12]
  oral bioavailability: excellent oral bioavailability
[12]; IV 15 mg/kg, FIG. 8B
  plasma concentration at start of decline: around 10 μg/ml
[12]; MRTPO−MRTIV
  Mean input time (MIT) into plasma of oral dose: 1.05 h
[12]; approximation assuming 1-compartment PK, ~1/MIT
  Ka: ~0.95 h⁻¹
[12]; mouse, plasma, 15 mg/kg, IV dose
  half-life: 2.23 h
[12]; mouse, plasma, 30 mg/kg, oral dose
  half-life: 2.47 h
[12]; mouse, plasma, IV 15 mg/kg, over the course of 7 hours, FIG. 8B, read-out: plasma concentration after 7 hours
  concentration at 7 h: ~100 ng/mL
[12]; mouse, plasma, oral 30 mg/kg vs IV 15 mg/kg, excluding PO_m3
  bioavailability: 99.5%
[12]; mouse, plasma, oral 30 mg/kg, excluding PO_m3 (possible outlier), read-out: mean oral AUCPO
  AUC: 28300 ng·h/mL
[12]; oral 30 mg/kg, excluding PO_m3
  mean oral CL: 1.06 L/hr per kg
[12]; oral dose
  MRTPO: 2.65 h
In vitro [13]
  CC50: > 100 µM
[14]; hamster
  stable in plasma up to: up to 24 h
[14]; human
  stable in plasma up to: up to 2 hours
[14]; mouse
  stable in plasma up to: up to 2 hours
Omicron [15]
  EC50: 1.8 to 2.1 µM
  EC90: 4.5 to 6.2 µM
